Values quoted from earlier work as cited in patent publication US20150119339A1, “USE OF HMB TO IMPROVE HEALTH OUTCOMES FOR HOSPITALIZED PATIENTS” (ABBOTT LABORATORIES, priority 2012, published 2015).

Conditions: three grams of HMB; older (70±1 yr) men and women; 10 days voluntary bed rest; not statistically different

SMILES: CC(C)(O)CC(=O)O [HMB, 3-hydroxy-3-methylbutanoic acid]
- loss of lean body mass: less loss of lean body mass
